Data set [1] can be described thus: Unidirectional Caco-2 cell permeability assay. Format: in vitro ADME. The note with it: human, n=2, apical pH 6.5, basolateral pH 7.4, 1 hour, 37° C. The method, then: Caco-2 cells (ECACC) were seeded onto 24-well Transwell plates at 2×10^5 cells per well and used in confluent monolayers after a 21 day culture at 37° C. under 5% CO2. Test compounds were incubated at 10 μM, 0.2% DMSO final, n=2 in assay buffer (Hanks balanced salt solution supplemented with 25 mM HEPES, adjusted to pH 6.5). Hanks balanced salt solution supplemented with 25 mM HEPES, adjusted to pH 7.4 (0.2% DMSO final) was used for the basolateral chamber (as receiver).
Incubations were performed at 37° C., with samples removed from both donor and acceptor chambers at T=0 and 1 hour and compound analysed by mass spectrometry (LC-MS/MS) including an analytical internal standard (0.5 μM carbamazepine).
Apparent permeability (Papp) values are shown in Table 4 and were determined from the relationship:
Where V is the volume of each Transwell compartment (apical 125 μL, basolateral 600 μL), and concentrations are the relative MS responses for compound (normalized to internal standard) in the donor chamber before incubation and acceptor chamber at the end of the incubation Area=area of cells exposed for drug transfer (0.33 cm^2).
Lucifer Yellow (LY) was added to the apical buffer in all wells to assess viability of the cell layer. As LY cannot freely permeate lipophilic barriers, a high degree of LY transport indicates poor integrity of the cell layer and wells with a LY Papp>10×10^−6 cm/s were rejected.
Compound recovery from the wells was determined from MS responses (normalized to internal standard) in donor and acceptor chambers at the end of incubation compared to response in the donor chamber pre-incubation.
On the technique in general: Caco-2 cells form a polarised layer with tight junctions and transporters.

A further data set has as its target T1, human EP4 (Homo sapiens, UniProt P35408).
T1 construct: expressed in transfected cells; host or cells: HEK293 cells transduced with EP4 BacMam virus
The data set can be described thus: cAMP Gs functional assay (HTRF cAMP dynamic-2). The class given is cell-based. The note with it: for Emax: HEK293, HEK293 cells transfected with EP4 Bacmam virus, positive control 10 uM PGE2; for EC50: HEK293 cells transfected with EP4 Bacmam virus, 30 mins at 37° C., −Log of the molarity (M), read-out: cAMP human EP4 pEC50 (converted). The method, then: Cloning, Baculovirus generation, large scale infection of HEK293 cells and membrane preparation: Human prostaglandin E2 receptor 4 (EP4) was cloned into pBacMam expression vector (GeneScript, UK). Transposition of EP4 DNA was performed using Invitrogen's Bac-to-Bac Baculovirus Expression Systems. P0 baculovirus was generated by transfecting SF9 Cells with bacmid DNA using Cellfectin II transfection reagent (ThermoFisher Scientific, UK). Following P0 generation P1 virus was then generated ready for large scale infection and membrane preparation. HEK293 cells were grown in DMEM (ThermoFisher Scientific, UK), supplemented with 10% heat inactivated fetal bovine serum (FBS). Cells were infected at a seeding density of 3.5 million cells/mL in 500 cm^3 flasks at 5% v/v EP4 Bacman. Expression was carried out over a 36 hr period at 37° C. with 5% CO2. The cells were removed using PBS and a cell scrapper. The cell culture was centrifuged at 2500 RPM for 10 mins at 4° C. The supernatant was then poured off and the pellet stored at −80° C. The pellet was defrosted and re-suspended in 15 mL of homogenising buffer (20 mM HEPES, 10 mM EDTA, pH 7.4). Then homogenised in mechanical homogeniser (VMR) for 10 seconds. The membrane was centrifuged in centrifuge tubes at 40,000 g for 15 mins at 4° C. The supernatant was poured away and re-suspended in 15 mL of homogenising buffer. Homogenised for 20 seconds. The membrane was centrifuged at 40,000 g for 45 mins at 4° C. The membrane was re-suspended in 3 mL of storage buffer (20 mM HEPES, 0.1 mM EDTA, pH 7.4) mixing well. The resulting membranes were then stored at −80° C.
cAMP Gs Functional Assay: cAMP production following EP4 receptor activation was determined using the Homogeneous Time-Resolved Fluorescence (HTRF) cAMP dynamic-2 assay (Cisbio, France). HEK293 cells were transfected using a 0.5% EP4 Bacmam virus for 36 hours, before dissociating the cells, and freezing at −150° C.
On the day of testing, increasing concentration of test compounds, alongside positive controls (10 uM PGE2 (Tocris, Abingdon, UK)) and negative control (DMSO (Sigma-Aldrich, UK) were added to a ProxiPlate-384 Plus, White 384-shallow well Mircoplate, (PerkinElmer, USA) using the ECHO dispense.
Cells were defrosted in a water bath and resuspended in DMEM supplemented with 10% FBS before centrifuging at 1200 RPM for 5 mins to form a pellet. The pellet was resuspended in assay buffer (DMEM+0.5 mM IBMX (Tocris, Abingdon, UK)) to 0.5×10^6 cells/mL. Cell suspension, for a final assay concentration of 5000 cell/well was added using the multidrop to the pre-dispensed assay plate. The plate was then incubated at 37° C. for 30 mins, with 5% CO2. The cAMP production was determined as manufacturer's instructions, before plates were read on a PheraStar fluorescence plate reader (BMG LabTech, Germany).
The pEC50 values (−Log of the molarity (M) in mol/liter) were calculated from the mid-point of the curve using dotmatics as shown in Table 3.
On the technique in general: Time-resolved FRET reads energy transfer from a long-lived donor to a nearby acceptor.

These results are taken from patent publication US12492174B2, “Morpholine-3-carboxamide derivatives as prostaglandin E2 receptor 4 (EP4) agonists for the treatment of gastrointestinal and pulmonary diseases” (NXERA PHARMA UK LIMITED, priority 2022, dated 2025).

Structures are written as SMILES.

T1 sequence (P35408 whole entry): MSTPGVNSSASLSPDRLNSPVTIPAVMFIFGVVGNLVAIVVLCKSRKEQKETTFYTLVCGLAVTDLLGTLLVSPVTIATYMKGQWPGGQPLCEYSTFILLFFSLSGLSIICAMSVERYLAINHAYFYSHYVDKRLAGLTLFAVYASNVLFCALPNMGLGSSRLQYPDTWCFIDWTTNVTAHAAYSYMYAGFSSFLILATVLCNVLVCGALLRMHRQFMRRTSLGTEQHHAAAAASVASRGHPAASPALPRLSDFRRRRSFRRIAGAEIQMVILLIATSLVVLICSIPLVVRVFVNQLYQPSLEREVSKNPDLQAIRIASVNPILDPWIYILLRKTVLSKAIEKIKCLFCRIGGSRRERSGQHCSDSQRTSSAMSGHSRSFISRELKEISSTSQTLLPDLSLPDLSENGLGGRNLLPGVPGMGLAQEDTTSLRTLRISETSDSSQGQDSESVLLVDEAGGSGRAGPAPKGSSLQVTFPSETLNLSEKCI

As for `Cc1cc(C(N)=O)ccc1-c1cccc(CN2CCOC[C@@H]2C(=O)NCc2cc(F)c(C(=O)O)c(F)c2)c1` [Example 8, 4-[[[(3R)-4-[[3-(4-carbamoyl-2-methyl-phenyl)phenyl]methyl]morpholine-3-carbonyl]amino]methyl]-2,6-difluoro-benzoic acid], the Papp A→B (in general, how fast a substance crosses the layer from the apical side) at 1 h, 10 μM in data set [1] is less than 0.1 ×10⁻⁶ cm/s. At human EP4, the Emax (in general, the maximal effect, on the per cent scale that the assay sets) is 96% and the EC50 was 1.58e-07 M.
The compound `Cc1cc(C(N)=O)ccc1-c1cccc(CN2CCOC[C@@H]2C(=O)NCc2ccc(C(=O)O)nc2)c1` [Example 9, 5-[[[(3R)-4-[[3-(4-carbamoyl-2-methyl-phenyl)phenyl]methyl]morpholine-3-carbonyl]amino]methyl]pyridine-2-carboxylic acid] returned a Papp A→B at 1 h, 10 μM in data set [1] of 0.24 ×10⁻⁶ cm/s. Besides, on human EP4, the Emax worked out at 97% and the EC50 is 3.98e-08 M.
In data set [1], `Cc1cc(C(N)=O)ccc1-c1cc(O)cc(CN2CCOC[C@@H]2C(=O)N[C@@H](C)c2ccc(C(=O)O)cc2)c1` [Example 10, 4-((S)-1-((R)-4-((4′-carbamoyl-5-hydroxy-2′-methyl-[1,1′-biphenyl]-3-yl)methyl)morpholine-3-carboxamido)ethyl)benzoic acid] yielded a Papp A→B at 1 h, 10 μM of less than 0.1 ×10⁻⁶ cm/s. At human EP4, the Emax amounted to 98% and the EC50 is 2e-10 M.
With `Cc1cc(S(N)(=O)=O)ccc1-c1cc(O)cc(CN2CCOC[C@@H]2C(=O)N[C@@H](C)c2ccc(C(=O)O)cc2)c1` [Example 11, 4-[(1S)-1-[[(3R)-4-[[3-hydroxy-5-(2-methyl-4-sulfamoyl-phenyl)phenyl]methyl]morpholine-3-carbonyl]amino]ethyl]benzoic acid], the Papp A→B at 1 h, 10 μM in data set [1] is less than 0.1 ×10⁻⁶ cm/s. On human EP4, the Emax worked out at 98% and the EC50 is 3.98e-10 M.
For `Cc1cc(S(N)(=O)=O)ccc1-c1cncc(CN2CCOC[C@@H]2C(=O)N[C@@H](C)c2ccc(C(=O)O)cc2)c1` [Example 12, 4-[(1S)-1-[[(3R)-4-[[5-(2-methyl-4-sulfamoyl-phenyl)-3-pyridyl]methyl]morpholine-3-carbonyl]amino]ethyl]benzoic acid], in data set [1], the Papp A→B at 1 h, 10 μM was determined as 0.12 ×10⁻⁶ cm/s. At human EP4, the Emax amounted to 99% and the EC50 was 1.58e-08 M.
In the same order, the values of `Cc1cc(C(N)=O)ccc1-c1cccc(CN2CCOC[C@@H]2C(=O)NCc2ccc(C(=O)O)c(F)c2)c1` [Example 13, 4-[[[(3R)-4-[[3-(4-carbamoyl-2-methyl-phenyl)phenyl]methyl]morpholine-3-carbonyl]amino]methyl]-2-fluoro-benzoic acid] are 0.32 ×10⁻⁶ cm/s, 96% and 1.26e-08 M.
In the case of `C[C@H](NC(=O)[C@H]1COCCN1Cc1cccc(-c2ccc(C(N)=O)cc2O)c1)c1ccc(C(=O)O)cc1` [Example 14, 4-((S)-1-((R)-4-((4′-carbamoyl-2′-hydroxy-[1,1′-biphenyl]-3-yl)methyl)morpholine-3-carboxamido)ethyl)benzoic acid], the Papp A→B at 1 h, 10 μM in data set [1] was 0.15 ×10⁻⁶ cm/s. Also, at human EP4, the Emax is 95% and the EC50 was 7.94e-08 M.
`Cc1cc(OS(N)(=O)=O)ccc1-c1cc(O)cc(CN2CCOC[C@@H]2C(=O)N[C@@H](C)c2ccc(C(=O)O)cc2)c1` [Example 15, 4-[(1S)-1-[[(3R)-4-[[3-hydroxy-5-(2-methyl-4-sulfamoyloxy-phenyl)phenyl]methyl]morpholine-3-carbonyl]amino]ethyl]benzoic acid] came in with a Papp A→B at 1 h, 10 μM in data set [1] of less than 0.1 ×10⁻⁶ cm/s. Moreover, at human EP4, the Emax came to 98% and the EC50 was 3.98e-10 M.
In the same order, the values of `Cc1cc(S(N)(=O)=O)ccc1-c1cc(CN2CCOC[C@@H]2C(=O)N[C@@H](C)c2ccc(C(=O)O)cc2)ccn1` [Example 16, 4-[(1S)-1-[[(3R)-4-[[2-(2-methyl-4-sulfamoyl-phenyl)-4-pyridyl]methyl]morpholine-3-carbonyl]amino]ethyl]benzoic acid] are less than 0.1 ×10⁻⁶ cm/s, 97% and 1.26e-07 M.
In turn, `Cc1cc(S(N)(=O)=O)ccc1-c1ccnc(CN2CCOC[C@@H]2C(=O)N[C@@H](C)c2ccc(C(=O)O)cc2)c1` [Example 17, 4-[(1S)-1-[[(3R)-4-[[4-(2-methyl-4-sulfamoyl-phenyl)-2-pyridyl]methyl]morpholine-3-carbonyl]amino]ethyl]benzoic acid] gave a Papp A→B at 1 h, 10 μM in data set [1] of 0.12 ×10⁻⁶ cm/s. Further, the Emax on human EP4 came out at 98%.
For `Cc1cc(C(N)=O)ccc1-c1cc(O)cc(CN2CCOC[C@@H]2C(=O)N[C@@H](C)c2ccc(C(=O)O)c(O)c2)c1` [Example 18, 4-((S)-1-((R)-4-((4′-carbamoyl-5-hydroxy-2′-methyl-[1,1′-biphenyl]-3-yl)methyl)morpholine-3-carboxamido)ethyl)-2-hydroxybenzoic acid], the Papp A→B at 1 h, 10 μM in data set [1] worked out at 0.78 ×10⁻⁶ cm/s. For the same compound, at human EP4, the Emax worked out at 99% and the EC50 is 3.98e-10 M.
In the case of `Cc1cc(C(N)=O)ccc1-c1cccc(CN2CCOC[C@@H]2C(=O)N[C@@H](C)c2ccc(C(=O)O)c(O)c2)c1` [Example 19, 4-((S)-1-((R)-4-((4′-carbamoyl-2′-methyl-[1,1′-biphenyl]-3-yl)methyl)morpholine-3-carboxamido)ethyl)-2-hydroxybenzoic acid], the Papp A→B at 1 h, 10 μM in data set [1] is less than 0.1 ×10⁻⁶ cm/s. Further, at human EP4, the Emax amounted to 99% and the EC50 is 1e-08 M.
In data set [1], `Cc1cc(S(N)(=O)=O)ccc1-c1cncc(CN2CCOC[C@@H]2C(=O)N[C@@H](C)c2ccc(C(=O)O)c(O)c2)c1` [Example 21, 2-hydroxy-4-((S)-1-((R)-4-((5-(2-methyl-4-sulfamoylphenyl)pyridin-3-yl)methyl)morpholine-3-carboxamido)ethyl)benzoic acid] showed a Papp A→B at 1 h, 10 μM of less than 0.1 ×10⁻⁶ cm/s. Also, at human EP4, the Emax was 99% and the EC50 was 1.58e-08 M.
On the same counts, the results for `Cc1cc(S(N)(=O)=O)ccc1-c1cc(O)cc(CN2CCOC[C@@H]2C(=O)N[C@@H](C)c2ccc(C(=O)O)c(O)c2)c1` [Example 22, 2-hydroxy-4-((S)-1-((R)-4-((5-hydroxy-2′-methyl-4′-sulfamoyl-[1,1′-biphenyl]-3-yl)methyl)morpholine-3-carboxamido)ethyl)benzoic acid] are less than 0.2 ×10⁻⁶ cm/s, 99% and 2.51e-10 M.
In data set [1], `C[C@H](NC(=O)[C@H]1COCCN1Cc1ccc(O)c(-c2ccc(C(N)=O)cc2)c1)c1ccc(C(=O)O)cc1` [Example 23, 4-[(1S)-1-[[(3R)-4-[[3-(4-carbamoylphenyl)-4-hydroxy-phenyl]methyl]morpholine-3-carbonyl]amino]ethyl]benzoic acid] had a Papp A→B at 1 h, 10 μM of 0.48 ×10⁻⁶ cm/s. At human EP4, the Emax amounted to 93% and the EC50 is 1e-08 M.
